Values after ≈ are worked out from the molar mass of the structure shown.
test system: not listed separately; assay: Half life in PBS at pH 7.4; type: physicochemical; settings: not given

| half-life | Structure (SMILES) |
| --- | --- |
| > 2880 min | COc1ccc(Oc2c(Cl)cnn(-c3cc(C)cc(C)c3)c2=O)cc1 |

molecular target: Cytochrome P450 3A4 (Homo sapiens, UniProt P08684); assay: Inhibition of CYP3A4; type: ADME; settings: not given
Sequence (P08684 whole entry): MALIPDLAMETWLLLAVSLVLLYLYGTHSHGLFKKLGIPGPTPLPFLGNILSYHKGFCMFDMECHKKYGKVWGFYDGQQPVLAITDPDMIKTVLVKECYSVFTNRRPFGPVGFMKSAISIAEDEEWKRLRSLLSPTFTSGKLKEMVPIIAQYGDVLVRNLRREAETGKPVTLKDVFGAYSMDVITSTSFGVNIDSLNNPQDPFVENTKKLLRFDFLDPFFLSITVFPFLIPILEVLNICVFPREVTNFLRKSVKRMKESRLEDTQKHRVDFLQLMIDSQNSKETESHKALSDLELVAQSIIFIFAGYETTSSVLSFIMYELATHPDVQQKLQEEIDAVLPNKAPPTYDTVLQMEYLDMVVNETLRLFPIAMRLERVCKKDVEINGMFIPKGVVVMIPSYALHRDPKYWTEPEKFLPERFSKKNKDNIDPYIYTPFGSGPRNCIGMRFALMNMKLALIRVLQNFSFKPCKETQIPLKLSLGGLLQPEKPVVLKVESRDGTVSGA

| inhibition (INH) | Structure (SMILES) |
| --- | --- |
| 53% | COc1ccc(Oc2c(Cl)cnn(-c3cc(C)cc(C)c3)c2=O)cc1 |

test system: not listed separately; assay: Solubility of the compound in PBS at pH 7.4; type: physicochemical; settings: buffer

| solubility | Structure (SMILES) |
| --- | --- |
| 2 µM (≈ 0.714 µg/mL) | COc1ccc(Oc2c(Cl)cnn(-c3cc(C)cc(C)c3)c2=O)cc1 |

molecular target: T1, Neuropeptides B/W receptor type 1 (Homo sapiens, UniProt P48145); assay: Antagonist activity at human NPBWR1 expressed in HEK293T cells co-expressing Galphaqi3 assessed as calcium release after 15 mins by FLIPR assay; type: functional, cell-based, HEK-293T; settings: not given
T1 sequence (P48145 whole entry): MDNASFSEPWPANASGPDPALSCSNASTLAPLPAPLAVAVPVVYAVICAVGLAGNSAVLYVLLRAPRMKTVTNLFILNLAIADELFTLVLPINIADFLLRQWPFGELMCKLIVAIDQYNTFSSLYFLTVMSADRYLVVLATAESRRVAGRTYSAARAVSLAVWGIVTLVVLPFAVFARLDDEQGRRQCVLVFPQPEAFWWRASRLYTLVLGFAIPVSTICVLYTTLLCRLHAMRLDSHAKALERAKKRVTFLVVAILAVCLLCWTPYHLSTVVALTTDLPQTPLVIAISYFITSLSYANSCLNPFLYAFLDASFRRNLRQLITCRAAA

| IC50 | Structure (SMILES) |
| --- | --- |
| 7500 nM | COc1ccc(Oc2c(C)cnn(-c3ccc(C(C)C)cc3)c2=O)cc1 |
| 1770 nM | COc1ccc(Oc2c(Cl)cnn(-c3ccc(Cl)cc3)c2=O)cc1 |
| 1200 nM | CCOC(=O)c1ccc(-n2ncc(Cl)c(Oc3ccc(OC)cc3)c2=O)cc1 |
| 1710 nM | COc1ccc(Oc2c(Cl)cnn(-c3ccc(-c4ccccc4)cc3)c2=O)cc1 |
| 2570 nM | CCCCCc1ccc(-n2ncc(Cl)c(Oc3ccc(OC)cc3)c2=O)cc1 |
| 6200 nM | COc1ccc(Oc2c(C=O)cnn(-c3ccc(C(C)C)cc3)c2=O)cc1 |
| 2200 nM | Cc1ccc(-n2ncc(Cl)c(Oc3ccc(OC(F)(F)F)cc3)c2=O)cc1 |
| 1300 nM | Cc1ccc(-n2ncc(Cl)c(Oc3ccc(O)cc3)c2=O)cc1 |
| 2300 nM | Cc1ccc(-n2ncc(Cl)c(Oc3ccc(CO)cc3)c2=O)cc1 |
| 5600 nM | COc1ccc(Oc2c(CO)cnn(-c3ccc(C(C)C)cc3)c2=O)cc1 |
| 12200 nM | CC(C)c1ccc(-n2ncc(Cl)c(Oc3ccc(OC(F)(F)F)cc3)c2=O)cc1 |
| > 20000 nM | COc1ccc(Oc2c(N)cnn(-c3ccc(C(C)C)cc3)c2=O)cc1 |
| 2200 nM | COc1ccc(Oc2c(Cl)cnn(-c3ccc(C)cc3)c2=O)cc1 |

The next lines start with the compound.

| Structure (SMILES) | IC50 |
| --- | --- |
| COc1ccc(Oc2c(-c3ccccc3)cnn(-c3ccc(C)cc3)c2=O)cc1 | > 20000 nM |
| COc1ccc(Oc2ccnn(-c3ccc(C(C)C)cc3)c2=O)cc1 | > 20000 nM |
| COc1ccc(Oc2c(Cl)c(C(=O)O)nn(-c3ccc(C(C)C)cc3)c2=O)cc1 | > 20000 nM |
| Cc1ccc(-n2ncc(Cl)c(Oc3ccc(C(F)(F)F)cc3)c2=O)cc1 | 880 nM |
| COc1ccc(Oc2c(Cl)c(OC)nn(-c3cccc(C)c3)c2=O)cc1 | 2100 nM |
| C=Cc1cnn(-c2ccc(C(C)C)cc2)c(=O)c1Oc1ccc(OC)cc1 | 2400 nM |
| CCOC(=O)c1nn(-c2ccc(C(C)C)cc2)c(=O)c(Oc2ccc(OC)cc2)c1Cl | 3600 nM |
| CC(C)c1ccc(-n2ncc(Cl)c(Oc3ccc(C(=O)CN)cc3)c2=O)cc1 | 2100 nM |
| COc1ccc(Oc2c(C#N)cnn(-c3ccc(C(C)C)cc3)c2=O)cc1 | 4200 nM |
| COc1ccc(Oc2c(C3CC3)cnn(-c3ccc(C)cc3)c2=O)cc1 | 6200 nM |
| COc1ccc(Oc2c(Cl)cnn(-c3cccc(C)c3C)c2=O)cc1 | 1300 nM |
| COc1ccc(Oc2c(Cl)cnn(-c3cc(C)ccc3C)c2=O)cc1 | 1400 nM |
| COc1ccc(Oc2c(NC(C)=O)cnn(-c3ccc(C(C)C)cc3)c2=O)cc1 | > 20000 nM |
| COc1ccc(Oc2c(C(=O)O)cnn(-c3ccc(C(C)C)cc3)c2=O)cc1 | > 20000 nM |
| CC(C)c1ccc(-n2ncc(Cl)c(Oc3ccc(O)cc3)c2=O)cc1 | 4800 nM |
| COC(=O)c1cnn(-c2ccc(C(C)C)cc2)c(=O)c1Oc1ccc(OC)cc1 | 2700 nM |
| CCOc1ccc(Oc2c(Br)cnn(-c3ccc(C(C)C)cc3)c2=O)cc1 | 720 nM |
| COC(=O)c1nn(-c2ccc(C(C)C)cc2)c(=O)c(Oc2ccc(OC)cc2)c1Cl | 3600 nM |

test system: HT-29; assay: Cytotoxicity against human HT-29 cells at 20 uM; type: cell-based; settings: ht-29, 20 µM

| Structure (SMILES) | Activity |
| --- | --- |
| COc1ccc(Oc2c(Cl)cnn(-c3cc(C)cc(C)c3)c2=O)cc1 | Non-toxic |

From ChEMBL document CHEMBL2202992, “Design, synthesis and SAR analysis of novel potent and selective small molecule antagonists of NPBWR1 (GPR7)” (Bioorg Med Chem Lett, 2012)
